These results are taken from patent US7981903B2, “2-[2-{phenylamino}-1H-pyrrolo[2,3-D]pyrimidin-4-yl)amino] benzamide derivatives as IGF-1R inhibitors for the treatment of cancer” (GlaxoSmithKline LLC, priority 2007, dated 2011).

Each structure is given as a SMILES string.

The target of one experiment is T1, human IGF1R (hIGF1R) (Homo sapiens, UniProt P08069).
T1 construct: containing amino acid residues 957-1367 of human IGF1R; made in house; host or cells: Sf9 cells (baculovirus)
The experiment is described as follows: TR-FRET kinase assay of purified hIGF1R. As to conditions: activated hIGF1R 0.5 nM, 10 μM ATP, values given as pIC50 category, read-out: IGF-1R pIC50 (converted). The class given is biochemical.

The test system of another experiment is Colo205. Put plainly: Inhibition of cell proliferation (CellTiter-Glo or InCell analyzer), Colo205. The format is cell-based. Particulars: Homo sapiens, COLO 205, 72 h / 3 days, values given as IC50 category. Here is the method: Cell proliferation was measured by either CellTiter-Glo (measures cellular ATP level as a surrogate for total cell number) or by InCell analyzer (counts number of nuclei as a measure of cell number).
For CellTiter-Glo assay, exponentially growing cell lines of different tumor origins, cultured in appropriate media containing 10% fetal bovine serum at 37° C. in a 5% CO2 incubator, were plated at low density (less than 2000cells/well) in 96-well plates. Twenty four hours post-plating, cells were treated with different concentrations of test compounds ranging from 30 uM to 1.5 nM. Several wells were left untreated as a control. Seventy two hours post-treatment, cell numbers were determined using 50-100 ul per well of CellTiter-Glo (Promega #G7573). Plates were incubated at 37° C. for 30 minutes and the chemiluminescent signal was read on the Victor V or Envison 2100 reader.
For InCell Analyser assay, various cell lines of different tumor origins were grown to 70-80% confluency in appropriate culture media containing 10% fetal bovine serum at 37° C. in a 5% CO2 incubator. On day −1, cells were seeded at 2 densities in 384-well plates and incubated at 37° C. overnight. Stock compound plates were prepared in advance which contained dimethyl sulfoxide (DMSO) alone and a 9-point half-log decreasing dose range of the compound in DMSO. The compound plates were stored at −80° C. and each plate was only thawed once and used. On day 0, the main assay plates received compound or DMSO via a sonic delivery system (ECHO). The highest final concentration of compound of the dose range in the culture plates was 10 uM. These plates were cultured at 37° C. for 3 days. […] On day 3, the compound treated plates were stained and fixed to measure proliferation, apoptosis, and mitotic index using an InCelL1000 analyser. A nuclear stain was used to identify cells in the wells. By counting the number of nuclei, the proliferation index of compound treated groups were calculated as a percentage relative to the DMSO control, which was set to 100%. The IC50 values were calculated using model 205 in ExcelFit.
IC50 (nM) values for compounds of select examples were categorized by relative inhibition of cell proliferation.
A general note: Cellular ATP, detected with luciferase, serves as a proxy for viable cell number.

In the next experiment the target is ALK (Homo sapiens, UniProt Q9UM73). Put plainly: ALK enzyme assay (HTRF). The format is biochemical. Particulars: 0.25 nM ALK, 15.0 μM ATP, values given as pIC50 category. In short, it runs like this: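 Final compound range 0.00017 to 10 μM (twelve 1:3 dilutions). Kinase reaction with ATP and biotinylated synthetic peptide runs 120 min at 20° C, stopped with EDTA; phosphotyrosine detected by HTRF after 60 min. Inhibition referenced to DMSO (1%) and EDTA (0.1 M) controls, curve-fitted.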
(In general: TR-FRET usually uses a lanthanide donor and a delayed reading to cut background.)

For experiment [1], the target named is T2, NIH-3T3 cells overexpressing human IGF-1R (Homo sapiens, UniProt P08069).
T2 construct: expressed in transfected cells; host or cells: NIH-3T3 (mouse fibroblasts)
The experiment is described as follows: IGF-1R cellular autophosphorylation (DELFIA). The class given is cell-based. Here is the method: NIH-3T3 cells overexpressing human IGF-1R or IR were plated in 96-well plates (10,000 cells/well) in culture media containing 10% fetal bovine serum and incubated at 37° C. in a 5% CO2 incubator. Twenty four hours post-plating, cells were treated with different concentrations of test compounds ranging from 30 uM to 1.5 nM. Two hours after compound addition, cells were stimulated with either human IGF-1 (30 ng/ml) or insulin (3 ug/ml) for 15 minutes. Cell lysates are analyzed for phosphorylated receptors using dissociation enhanced lanthanide fluor-immuno assay (DELFIA) with anti-IGF-1R (MAB391, R&D Systems, Minneapolis, Minn.) or anti-IRβ (sc-711, Santa Cruz Biotechnology, Santa Cruz, Calif.) capture antibody and europium-labeled anti-pTyr antibody (Eu-N1 PT66, Perkin Elmer, Waltham, Mass.) for detection. The fluorescence signal for cells treated with compounds was expressed as percent relative to 100% stimulation (IGF-1 or insulin stimulated signal).

The next experiment has as its target T3, human IR (hIR) (Homo sapiens, UniProt P06213).
T3 construct: containing amino acid residues 979-1382 of human IR; made in house; host or cells: Sf9 cells (baculovirus), same process as hIGF1R
Put plainly: TR-FRET kinase assay of purified hIR. The class given is biochemical. Particulars: activated hIR 0.5 nM, 10 μM ATP, values given as pIC50 category.

T1 sequence (P08069 957-1367): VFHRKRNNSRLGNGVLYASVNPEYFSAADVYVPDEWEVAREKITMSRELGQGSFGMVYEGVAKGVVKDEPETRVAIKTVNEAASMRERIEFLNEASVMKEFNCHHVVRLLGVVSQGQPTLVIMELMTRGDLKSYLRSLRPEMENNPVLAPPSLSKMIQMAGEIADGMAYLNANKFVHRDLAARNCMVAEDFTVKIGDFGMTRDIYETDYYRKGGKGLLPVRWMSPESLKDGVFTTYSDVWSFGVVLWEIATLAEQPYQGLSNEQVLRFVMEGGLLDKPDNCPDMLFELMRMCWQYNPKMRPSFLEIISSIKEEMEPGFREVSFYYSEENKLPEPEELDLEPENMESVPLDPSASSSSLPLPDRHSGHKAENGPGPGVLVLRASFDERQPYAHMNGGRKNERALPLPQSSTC
Sequence of ALK (Q9UM73 19-1620): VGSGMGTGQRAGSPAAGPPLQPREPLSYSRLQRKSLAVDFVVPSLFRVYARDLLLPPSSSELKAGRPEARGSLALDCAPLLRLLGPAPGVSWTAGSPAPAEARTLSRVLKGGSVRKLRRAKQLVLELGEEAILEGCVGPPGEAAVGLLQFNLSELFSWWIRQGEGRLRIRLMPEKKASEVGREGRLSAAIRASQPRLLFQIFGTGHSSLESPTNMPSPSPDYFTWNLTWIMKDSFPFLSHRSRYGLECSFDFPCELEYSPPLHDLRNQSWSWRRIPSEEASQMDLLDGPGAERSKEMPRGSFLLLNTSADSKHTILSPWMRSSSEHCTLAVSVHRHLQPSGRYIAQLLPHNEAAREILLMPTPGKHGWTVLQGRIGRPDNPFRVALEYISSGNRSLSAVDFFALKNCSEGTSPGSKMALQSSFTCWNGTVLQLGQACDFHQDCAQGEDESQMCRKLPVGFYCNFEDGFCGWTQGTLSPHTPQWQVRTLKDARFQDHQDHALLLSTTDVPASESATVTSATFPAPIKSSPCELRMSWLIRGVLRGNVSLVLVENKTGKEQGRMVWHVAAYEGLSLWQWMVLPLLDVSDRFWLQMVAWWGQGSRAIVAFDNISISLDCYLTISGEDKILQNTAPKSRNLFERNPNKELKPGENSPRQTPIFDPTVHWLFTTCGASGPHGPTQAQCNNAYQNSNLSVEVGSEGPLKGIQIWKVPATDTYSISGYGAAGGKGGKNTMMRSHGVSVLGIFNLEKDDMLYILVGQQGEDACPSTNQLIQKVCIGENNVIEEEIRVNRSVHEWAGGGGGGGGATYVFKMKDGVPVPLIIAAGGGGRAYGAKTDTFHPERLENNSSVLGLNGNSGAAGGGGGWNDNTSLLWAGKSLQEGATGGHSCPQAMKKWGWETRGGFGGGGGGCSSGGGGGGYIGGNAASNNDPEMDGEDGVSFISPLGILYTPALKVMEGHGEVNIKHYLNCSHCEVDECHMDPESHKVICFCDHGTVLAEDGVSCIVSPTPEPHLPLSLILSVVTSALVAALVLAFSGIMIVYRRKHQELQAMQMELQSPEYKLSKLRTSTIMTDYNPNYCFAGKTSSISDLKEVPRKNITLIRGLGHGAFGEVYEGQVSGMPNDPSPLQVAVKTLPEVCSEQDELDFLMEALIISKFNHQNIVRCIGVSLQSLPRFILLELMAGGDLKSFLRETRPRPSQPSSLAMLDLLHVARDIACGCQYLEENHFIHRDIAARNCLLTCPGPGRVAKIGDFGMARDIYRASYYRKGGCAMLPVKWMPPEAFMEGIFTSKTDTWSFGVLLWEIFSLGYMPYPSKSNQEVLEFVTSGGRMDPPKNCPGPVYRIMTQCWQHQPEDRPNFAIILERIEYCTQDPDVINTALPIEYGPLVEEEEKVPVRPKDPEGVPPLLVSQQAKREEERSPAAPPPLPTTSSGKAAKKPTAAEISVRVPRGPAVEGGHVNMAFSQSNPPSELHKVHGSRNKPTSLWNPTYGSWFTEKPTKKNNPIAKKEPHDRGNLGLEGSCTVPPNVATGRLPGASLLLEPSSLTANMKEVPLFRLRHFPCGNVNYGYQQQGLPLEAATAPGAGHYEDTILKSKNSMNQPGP
T2 sequence (P08069 31-1367): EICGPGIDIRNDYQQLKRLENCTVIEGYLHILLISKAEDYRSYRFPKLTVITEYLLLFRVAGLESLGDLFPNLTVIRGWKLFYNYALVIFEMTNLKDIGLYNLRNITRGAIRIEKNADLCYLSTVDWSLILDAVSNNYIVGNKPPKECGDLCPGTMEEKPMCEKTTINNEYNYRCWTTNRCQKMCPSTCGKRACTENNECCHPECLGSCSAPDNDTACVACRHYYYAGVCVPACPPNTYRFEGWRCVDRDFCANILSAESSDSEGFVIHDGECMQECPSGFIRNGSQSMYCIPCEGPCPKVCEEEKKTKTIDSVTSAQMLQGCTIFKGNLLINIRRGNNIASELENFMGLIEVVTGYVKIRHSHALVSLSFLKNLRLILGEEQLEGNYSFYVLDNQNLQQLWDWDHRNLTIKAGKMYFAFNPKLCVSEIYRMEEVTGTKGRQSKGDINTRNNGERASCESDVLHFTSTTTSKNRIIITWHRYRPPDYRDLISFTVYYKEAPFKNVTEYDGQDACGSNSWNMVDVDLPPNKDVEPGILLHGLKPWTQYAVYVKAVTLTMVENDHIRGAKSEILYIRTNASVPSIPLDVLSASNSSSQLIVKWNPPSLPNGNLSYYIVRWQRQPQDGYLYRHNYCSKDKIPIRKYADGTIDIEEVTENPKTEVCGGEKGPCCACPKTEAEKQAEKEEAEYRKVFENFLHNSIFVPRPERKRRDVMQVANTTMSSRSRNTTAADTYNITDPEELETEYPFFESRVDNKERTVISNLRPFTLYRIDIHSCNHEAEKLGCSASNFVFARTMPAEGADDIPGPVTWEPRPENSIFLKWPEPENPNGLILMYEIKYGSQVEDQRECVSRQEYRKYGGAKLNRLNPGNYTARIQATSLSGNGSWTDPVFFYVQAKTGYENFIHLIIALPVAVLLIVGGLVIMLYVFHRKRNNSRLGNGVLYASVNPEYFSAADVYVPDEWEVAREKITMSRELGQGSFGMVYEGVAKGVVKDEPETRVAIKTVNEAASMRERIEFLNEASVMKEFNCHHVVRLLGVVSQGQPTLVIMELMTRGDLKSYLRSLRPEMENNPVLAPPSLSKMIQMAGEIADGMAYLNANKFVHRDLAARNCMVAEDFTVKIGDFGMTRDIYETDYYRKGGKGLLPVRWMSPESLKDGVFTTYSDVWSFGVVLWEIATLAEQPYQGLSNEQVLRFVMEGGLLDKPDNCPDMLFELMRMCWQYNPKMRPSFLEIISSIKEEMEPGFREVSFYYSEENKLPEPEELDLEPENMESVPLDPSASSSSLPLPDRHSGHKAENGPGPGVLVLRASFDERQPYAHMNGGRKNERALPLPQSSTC
T3 sequence (P06213 979-1382): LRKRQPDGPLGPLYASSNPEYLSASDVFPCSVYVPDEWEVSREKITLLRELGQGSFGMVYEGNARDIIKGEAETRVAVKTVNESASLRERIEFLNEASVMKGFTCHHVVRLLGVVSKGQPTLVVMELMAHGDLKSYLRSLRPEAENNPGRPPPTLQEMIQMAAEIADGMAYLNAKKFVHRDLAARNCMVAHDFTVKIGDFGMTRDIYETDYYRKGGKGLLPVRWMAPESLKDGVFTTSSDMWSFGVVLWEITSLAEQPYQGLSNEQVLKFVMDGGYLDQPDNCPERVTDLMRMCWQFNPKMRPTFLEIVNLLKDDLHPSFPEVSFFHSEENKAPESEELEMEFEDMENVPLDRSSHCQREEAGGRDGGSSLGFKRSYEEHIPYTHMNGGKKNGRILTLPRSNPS

`COc1ccc(OCCCN(C)C)cc1Nc1nc(Nc2ccc(F)cc2C(N)=O)c2cc[nH]c2n1` [Example 64, 2-[(2-{[5-{[3-(dimethylamino)propyl]oxy}-2-(methyloxy)phenyl]amino}-1H-pyrrolo[2,3-d]pyrimidin-4-yl)amino]-5-fluorobenzamide]: the IC50 on human IGF1R (hIGF1R) is 1.26 to 3.98 nM; with Colo205, 250 to 1000 nM; against ALK, 1.26 to 3.98 nM; in experiment [1] it was below 100 nM.
As to `COc1cc(N2CCN(C(C)C)CC2)c(OC)cc1Nc1nc(Nc2cccc(F)c2C(N)=O)c2cc[nH]c2n1` [Example 47, 2-fluoro-6-[(2-{[4-[4-(1-methylethyl)-1-piperazinyl]-2,5-bis(methyloxy)phenyl]amino}-1H-pyrrolo[2,3-d]pyrimidin-4-yl)amino]benzamide], the IC50 at human IGF1R (hIGF1R) was 1.26 to 3.98 nM; in the experiment with Colo205 it was below 250 nM; on ALK, 1.26 to 3.98 nM; in experiment [1], below 100 nM.
Take `CNC(=O)c1c(F)cccc1Nc1nc(Nc2cc3c(cc2OC)C[C@@H](C)N3C(=O)CN(C)C)nc2[nH]ccc12` [Example 250, 2-[(2-{[(2R)-1-(N,N-dimethylglycyl)-2-methyl-5-(methyloxy)-2,3-dihydro-1H-indol-6-yl]amino}-1H-pyrrolo[2,3-d]pyrimidin-4-yl)amino]-6-fluoro-N-methylbenzamide]: the IC50 on human IR (hIR) was 5.01 to 158 nM; on human IGF1R (hIGF1R), 5.01 to 200 nM; on ALK it was 5.01 to 200 nM; in experiment [1], above 500 nM.
As to `Cc1ccc(NC(=O)CN(C)C)cc1Nc1nc(Nc2cc(Cl)ccc2C(N)=O)c2cc[nH]c2n1` [Example 111], the IC50 was 1.26 to 3.98 nM at human IR (hIR), 1.26 to 3.98 nM at human IGF1R (hIGF1R), 5.01 to 200 nM on ALK and above 500 nM in experiment [1].
In the case of `CN(C)CC(=O)Nc1ccc(OC(F)(F)F)c(Nc2nc(Nc3ccc(F)cc3C(N)=O)c3cc[nH]c3n2)c1` [Example 63, 2-{[2-({5-[(N,N-dimethylglycyl)amino]-2-[(trifluoromethyl)oxy]phenyl}amino)-1H-pyrrolo[2,3-d]pyrimidin-4-yl]amino}-5-fluorobenzamide], the IC50 against human IR (hIR) is 0.251 to 1 nM; at human IGF1R (hIGF1R), 0.251 to 1 nM; against ALK, 1.26 to 3.98 nM; in experiment [1] it was 100 to 500 nM.
Consider `CCCN1CCC=C(c2ccc(Nc3nc(Nc4ccc(C)cc4C(N)=O)c4cc[nH]c4n3)c(OC)c2)C1` [Example 33, 5-methyl-2-[(2-{[2-(methyloxy)-4-(1-propyl-1,2,5,6-tetrahydro-3-pyridinyl)phenyl]amino}-1H-pyrrolo[2,3-d]pyrimidin-4-yl)amino]benzamide], for which the IC50 was 1.26 to 3.98 nM at human IR (hIR), 1.26 to 3.98 nM on human IGF1R (hIGF1R), 0.251 to 1 nM against ALK and above 500 nM in experiment [1].
For `COc1cc(N2CCN(C(C)C)CC2)ccc1Nc1nc(Nc2cc(F)c(F)cc2C(N)=O)c2cc[nH]c2n1` [Example 102, 4,5-difluoro-2-[(2-{[4-[4-(1-methylethyl)-1-piperazinyl]-2-(methyloxy)phenyl]amino}-1H-pyrrolo[2,3-d]pyrimidin-4-yl)amino]benzamide], the IC50 on human IR (hIR) is 0.251 to 1 nM; on human IGF1R (hIGF1R) it was 0.251 to 1 nM; against ALK, 0.251 to 1 nM; in experiment [1], below 100 nM.
In the case of `Cc1ccc(NC(=O)CN(C)C)cc1Nc1nc(Nc2cc(F)ccc2C(N)=O)c2cc[nH]c2n1` [Example 85, 2-{[2-({5-[(N,N-dimethylglycyl)amino]-2-methylphenyl}amino)-1H-pyrrolo[2,3-d]pyrimidin-4-yl]amino}-4-fluorobenzamide], the IC50 on human IR (hIR) was 0.251 to 1 nM; on human IGF1R (hIGF1R), 1.26 to 3.98 nM; against ALK, 5.01 to 200 nM; in experiment [1], above 500 nM.
With `Cc1ccc(NC(=O)CN(C)C)cc1Nc1nc(Nc2cc(F)c(F)cc2C(N)=O)c2cc[nH]c2n1` [Example 106, 2-{[2-({5-[(N,N-dimethylglycyl)amino]-2-methylphenyl}amino)-1H-pyrrolo[2,3-d]pyrimidin-4-yl]amino}-4,5-difluorobenzamide], the IC50 on human IR (hIR) is 0.251 to 1 nM; on human IGF1R (hIGF1R), 1.26 to 3.98 nM; against ALK it was 5.01 to 200 nM; in experiment [1] it was above 500 nM.
Turning to `CCCN1CCC=C(c2ccc(Nc3nc(Nc4cc(F)ccc4C(=O)NCC(N)=O)c4cc[nH]c4n3)c(OC)c2)C1` [Example 67, N-(2-amino-2-oxoethyl)-4-fluoro-2-[(2-{[2-(methyloxy)-4-(1-propyl-1,2,5,6-tetrahydro-3-pyridinyl)phenyl]amino}-1H-pyrrolo[2,3-d]pyrimidin-4-yl)amino]benzamide], the IC50 is 1.26 to 3.98 nM at human IGF1R (hIGF1R), 250 to 1000 nM with Colo205, 1.26 to 3.98 nM against ALK and 100 to 500 nM in experiment [1].
Turning to `Cc1ccc(NC(=O)CN(C)C)cc1Nc1nc(Nc2ccccc2C(=O)NCCO)c2cc[nH]c2n1` [Example 26, 2-{[2-({5-[(N,N-dimethylglycyl)amino]-2-methylphenyl}amino)-1H-pyrrolo[2,3-d]pyrimidin-4-yl]amino}-N-(2-hydroxyethyl)benzamide], the IC50 on human IR (hIR) is 1.26 to 3.98 nM; at human IGF1R (hIGF1R) it was 5.01 to 200 nM; on ALK it was 5.01 to 200 nM; in experiment [1], above 500 nM.
As to `COc1cc(N2CCN(C(C)C)CC2)ccc1Nc1nc(Nc2cccc(C)c2C(N)=O)c2cc[nH]c2n1` [Example 31, 2-methyl-6-[(2-{[4-[4-(1-methylethyl)-1-piperazinyl]-2-(methyloxy)phenyl]amino}-1H-pyrrolo[2,3-d]pyrimidin-4-yl)amino]benzamide], the IC50 is 5.01 to 158 nM against human IR (hIR), 5.01 to 200 nM at human IGF1R (hIGF1R), 5.01 to 200 nM against ALK and above 500 nM in experiment [1].
For the molecule `Cc1ccc(NC(=O)CN(C)C)cc1Nc1nc(Nc2ccccc2C(=O)NO)c2cc[nH]c2n1` [Example 28, 2-{[2-({5-[(N,N-dimethylglycyl)amino]-2-methylphenyl}amino)-1H-pyrrolo[2,3-d]pyrimidin-4-yl]amino}-N-hydroxybenzamide], the IC50 on human IR (hIR) was 0.251 to 1 nM; at human IGF1R (hIGF1R), 0.251 to 1 nM; on ALK it was 0.251 to 1 nM; in experiment [1] it was above 500 nM.
On to `COc1cc(C2CCCN(C)C2)ccc1Nc1nc(Nc2ccccc2C(N)=O)c2cc[nH]c2n1` (stereo not drawn) [Example 5, 2-[(2-{[2-(methyloxy)-4-(1-methyl-3-piperidinyl)phenyl]amino}-1H-pyrrolo[2,3-d]pyrimidin-4-yl)amino]benzamide], for which the IC50 at human IR (hIR) is 0.251 to 1 nM; on human IGF1R (hIGF1R) it was 0.251 to 1 nM; against ALK, 0.251 to 1 nM; in experiment [1], below 100 nM.
With `Cc1cc(N2CCOCC2)ccc1Nc1nc(Nc2ccccc2C(N)=O)c2cc[nH]c2n1` [Example 11, 2-[(2-{[2-methyl-4-(4-morpholinyl)phenyl]amino}-1H-pyrrolo[2,3-d]pyrimidin-4-yl)amino]benzamide], the IC50 against human IR (hIR) was 1.26 to 3.98 nM; on human IGF1R (hIGF1R), 1.26 to 3.98 nM; at ALK it was 1.26 to 3.98 nM; in experiment [1], 100 to 500 nM.
